# Measured values published in US10647747B2, “Cyclosporin derivatives and uses thereof” (S&T Global Inc., priority 2010, dated 2020).
# Where two headings read alike, the source gives them in different places. *1 amine or outer side, *2 acyl side, *3 side chain or, on linkers, in order; H or OH if unused. Where a SMILES comes first, the peptide text is derived from it. [ ]: non-standard residue; d: D form. The star is where a group is joined. NMe(dihydroBmt) = CCCC[C@@H](C)[C@@H](O)[C@H](NC)C(=O)O; X11 = CN([C@@H](CC(C)(C)OCCO)C(=O)[*:2])[*:1]; X3 = CC=CCC(C)C(O)C(C(=O)[*:2])N(C)[*:1]; NMeI = CC[CH](C)[CH](NC)C(=O)O; NMeL = CN[CH](CC(C)C)C(=O)O; NMeV = CN[CH](C(=O)O)C(C)C; Et2NCH2CH2 = CCN(CC)CC*; NMeC = CN[CH](CS)C(=O)O; NMeS = CN[CH](CO)C(=O)O; Abu = CC[CH](N)C(=O)O; Sar = CNCC(=O)O
# Test system: HCV replicon in cell line ET (luc-ubi-neo/ET), Huh7 human hepatoma
# Experiment: HCV subgenomic replicon assay, luciferase end point
# Format: cell-based
# [1] = Table 13, HCV replicon luciferase, read-out: Antiviral activity EC50
# [2] = HCV subgenomic replicon, cell line ET (luc-ubi-neo/ET) Huh7, luciferase end point, read-out: Antiviral activity EC50
# [3] = Table 14, HCV replicon luciferase, read-out: Antiviral activity EC50
# [4] = Table 16, HCV replicon luciferase, read-out: Antiviral activity EC50
# [5] = Table 12, HCV replicon luciferase, read-out: Antiviral activity EC50
structure (smiles),measurement,setting,value
CC=CCC(C)C(O)C1C(=O)NC(CC)C(=O)N(C)CC(=O)N(C)C(CC(C)(C)OC)C(=O)NC(C(C)C)C(=O)N(C)C(CC(C)C)C(=O)NC(C)C(=O)NC(C)C(=O)N(C)C(CC(C)C)C(=O)N(C)C(CC(C)C)C(=O)N(C)C(C(C)C)C(=O)N1C (centres unmarked) [[(γ-Methoxy)-N-MeLeu]-4-cyclosporin],EC50,[1],180 nM
C/C=C/C[C@@H](C)[C@@H](O)[C@H]1C(=O)N[C@@H](CC)C(=O)N(C)[C@H](COCCCN2CCCC2)C(=O)N(C)[C@@H](CC(C)(C)O)C(=O)N[C@@H](C(C)C)C(=O)N(C)[C@@H](CC(C)C)C(=O)N[C@@H](C)C(=O)N[C@H](C)C(=O)N(C)[C@@H](CC(C)C)C(=O)N(C)[C@@H](CC(C)C)C(=O)N(C)[C@@H](C(C)C)C(=O)N1C,EC50,[2],220 nM
same,EC50,[3],120 nM
C/C=C/C[C@@H](C)[C@@H](O)[C@H]1C(=O)N[C@@H](CC)C(=O)N(C)[C@H](CSCCN2CCN(C)CC2)C(=O)N(C)[C@@H](CC(C)(C)O)C(=O)N[C@@H](C(C)C)C(=O)N(C)[C@@H](CC(C)C)C(=O)N[C@@H](C)C(=O)N[C@H](C)C(=O)N(C)[C@@H](CC(C)C)C(=O)N(C)[C@@H](CC(C)C)C(=O)N(C)[C@@H](C(C)C)C(=O)N1C,EC50,"Hepatitis C virus, Huh-7, Table 14, HCV replicon luciferase, read-out: Antiviral activity EC50",30 nM
C/C=C/C[C@@H](C)[C@@H](O)[C@H]1C(=O)N[C@@H](CC)C(=O)N(C)[C@H](CSCCCN2CCN(CC(C)C)CC2)C(=O)N(C)[C@@H](CC(C)(C)O)C(=O)N[C@@H](C(C)C)C(=O)N(C)[C@@H](CC(C)C)C(=O)N[C@@H](C)C(=O)N[C@H](C)C(=O)N(C)[C@@H](CC(C)C)C(=O)N(C)[C@@H](CC(C)C)C(=O)N(C)[C@@H](C(C)C)C(=O)N1C,EC50,[4],50 nM
C/C=C/C[C@@H](C)[C@@H](O)[C@H]1C(=O)N[C@@H](CC)C(=O)N(C)[C@H](CSCCCN(CC)CC)C(=O)N(C)[C@@H](CC(C)(C)O)C(=O)N[C@@H](C(C)C)C(=O)N(C)[C@@H](CC(C)C)C(=O)N[C@@H](C)C(=O)N[C@H](C)C(=O)N(C)[C@@H](CC(C)C)C(=O)N(C)[C@@H](CC(C)C)C(=O)N(C)[C@@H](C(C)C)C(=O)N1C,EC50,[2],80 nM
"C/C=C/C[C@@H](C)[C@@H](O)[C@H]1C(=O)N[C@@H](CC)C(=O)N(C)[C@H](CSCCN(C)C)C(=O)N(C)[C@@H](CC(C)(C)O)C(=O)N[C@@H](C(C)C)C(=O)N(C)[C@@H](CC(C)C)C(=O)N[C@@H](C)C(=O)N[C@H](C)C(=O)N(C)[C@@H](CC(C)C)C(=O)N(C)[C@@H](CC(C)C)C(=O)N(C)[C@@H](C(C)C)C(=O)N1C (single isomer, unassigned; isomer b)",EC50,[2],130 nM
CC=CCC(C)C(O)C1C(=O)NC(CC)C(=O)N(C)C(CSCCN2CCOCC2)C(=O)N(C)C(CC(C)(C)OC)C(=O)NC(C(C)C)C(=O)N(C)C(CC(C)C)C(=O)NC(C)C(=O)NC(C)C(=O)N(C)C(CC(C)C)C(=O)N(C)C(CC(C)C)C(=O)N(C)C(C(C)C)C(=O)N1C (centres unmarked),EC50,[2],110 nM
CC=CCC(C)C(O)C1C(=O)NC(CC)C(=O)N(C)C(CSCCCCOCCN(CC)CC)C(=O)N(C)C(CC(C)(C)O)C(=O)NC(C(C)C)C(=O)N(C)C(CC(C)C)C(=O)NC(C)C(=O)NC(C)C(=O)N(C)C(CC(C)C)C(=O)N(C)C(CC(C)C)C(=O)N(C)C(C(C)C)C(=O)N1C (centres unmarked),EC50,[4],50 nM
"CC=CCC(C)C(O)C1C(=O)NC(CC)C(=O)N(C)C(COCCN(CC)CC)C(=O)N(C)C(C(C)CC)C(=O)NC(C(C)C)C(=O)N(C)C(CC(C)C)C(=O)NC(C)C(=O)NC(C)C(=O)N(C)C(CC(C)C)C(=O)N(C)C(CC(C)C)C(=O)N(C)C(C(C)C)C(=O)N1C [[(R)-(2-(N,N-Diethylamino)ethoxy)methyl-Sar]-3-[N-MeIle]-4-cyclosporin] (cyclo([X3][Abu][NMeS](Et2NCH2CH2)[NMeI]V[NMeL]AA[NMeL][NMeL][NMeV]); configuration not given here)",EC50,[2],160 nM
"C/C=C/C[C@@H](C)[C@@H](O)[C@H]1C(=O)N[C@@H](CC)C(=O)N(C)CC(=O)N(C)[C@@H](C(C)C)C(=O)N[C@@H](C(C)C)C(=O)N(C)[C@@H](CC(C)C)C(=O)N[C@@H](C)C(=O)N[C@H](C)C(=O)N(C)[C@@H](CC(C)C)C(=O)N(C)[C@@H](CC(C)C)C(=O)N(C)[C@@H](C(C)C)C(=O)N1C [[N-MeVal]-4-cyclosporin (SDZ 220-384), N-MeVal-4-Cyclosporin, reference compound]",EC50,"Hepatitis C virus, Huh-7, read-out: Antiviral activity EC50, Table 12, HCV replicon luciferase",170 nM
CC=CCC(C)C(O)C1C(=O)NC(CC)C(=O)N(C)C(SCCN(CC)CC)C(=O)N(C)C(CC(C)C)C(=O)NC(C(C)C)C(=O)N(C)C(CC(C)C)C(=O)NC(C)C(=O)NC(C)C(=O)N(C)C(CC(C)C)C(=O)N(C)C(CC(C)C)C(=O)N(C)C(C(C)C)C(=O)N1C [(S)-2-(N-Diethylamino)ethylthio-Sar]-3-cyclosporin],EC50,[5],160 nM
CC=CCC(C)C(O)C1C(=O)NC(CC)C(=O)N(C)C(CSCCCNCC(C)(C)C)C(=O)N(C)C(CC(C)(C)O)C(=O)NC(C(C)C)C(=O)N(C)C(CC(C)C)C(=O)NC(C)C(=O)NC(C)C(=O)N(C)C(CC(C)C)C(=O)N(C)C(CC(C)C)C(=O)N(C)C(C(C)C)C(=O)N1C (centres unmarked),EC50,[4],50 nM
"C/C=C/C[C@@H](C)[C@@H](O)[C@H]1C(=O)N[C@@H](CC)C(=O)N(C)[C@@H](CSCCN(CC)CC)C(=O)N(C)[C@@H](CC(C)(C)O)C(=O)N[C@@H](C(C)C)C(=O)N(C)[C@@H](CC(C)C)C(=O)N[C@@H](C)C(=O)N[C@H](C)C(=O)N(C)[C@@H](CC(C)C)C(=O)N(C)[C@@H](CC(C)C)C(=O)N(C)[C@@H](C(C)C)C(=O)N1C (single isomer, unassigned; isomer a)",EC50,[3],2120 nM
CC=CCC(C)C(O)C1C(=O)NC(CC)C(=O)N(C)C(CSCCCN2CCCCC2)C(=O)N(C)C(CC(C)(C)OC)C(=O)NC(C(C)C)C(=O)N(C)C(CC(C)C)C(=O)NC(C)C(=O)NC(C)C(=O)N(C)C(CC(C)C)C(=O)N(C)C(CC(C)C)C(=O)N(C)C(C(C)C)C(=O)N1C (centres unmarked),EC50,[2],60 nM
CC=CCC(C)C(O)C1C(=O)NC(CC)C(=O)N(C)C(CSCCCN(CC)C(C)C)C(=O)N(C)C(CC(C)(C)O)C(=O)NC(C(C)C)C(=O)N(C)C(CC(C)C)C(=O)NC(C)C(=O)NC(C)C(=O)N(C)C(CC(C)C)C(=O)N(C)C(CC(C)C)C(=O)N(C)C(C(C)C)C(=O)N1C (centres unmarked),EC50,[2],60 nM
C/C=C/C[C@@H](C)[C@@H](O)[C@H]1C(=O)N[C@@H](CC)C(=O)N(C)[C@H](CSCCNC(C)C)C(=O)N(C)[C@@H](CC(C)(C)O)C(=O)N[C@@H](C(C)C)C(=O)N(C)[C@@H](CC(C)C)C(=O)N[C@@H](C)C(=O)N[C@H](C)C(=O)N(C)[C@@H](CC(C)C)C(=O)N(C)[C@@H](CC(C)C)C(=O)N(C)[C@@H](C(C)C)C(=O)N1C,EC50,"Hepatitis C virus, Huh-7, HCV subgenomic replicon, cell line ET (luc-ubi-neo/ET) Huh7, luciferase end point, read-out: Antiviral activity EC50",190 nM
C/C=C/C[C@@H](C)[C@@H](O)[C@H]1C(=O)N[C@@H](CC)C(=O)N(C)[C@H](CSCCCN2CCOCC2)C(=O)N(C)[C@@H](CC(C)(C)O)C(=O)N[C@@H](C(C)C)C(=O)N(C)[C@@H](CC(C)C)C(=O)N[C@@H](C)C(=O)N[C@H](C)C(=O)N(C)[C@@H](CC(C)C)C(=O)N(C)[C@@H](CC(C)C)C(=O)N(C)[C@@H](C(C)C)C(=O)N1C,EC50,[2],50 nM
same,EC50,[4],40 nM
CC=CCC(C)C(O)C1C(=O)NC(CC)C(=O)N(C)C(CSCCCN2CCN(CC(C)(C)C)CC2)C(=O)N(C)C(CC(C)(C)O)C(=O)NC(C(C)C)C(=O)N(C)C(CC(C)C)C(=O)NC(C)C(=O)NC(C)C(=O)N(C)C(CC(C)C)C(=O)N(C)C(CC(C)C)C(=O)N(C)C(C(C)C)C(=O)N1C (centres unmarked),EC50,[4],60 nM
C/C=C/C[C@@H](C)[C@@H](O)[C@H]1C(=O)N[C@@H](CC)C(=O)N(C)[C@H](COCCN(CC)CC)C(=O)N(C)[C@@H](CC(C)(C)OC)C(=O)N[C@@H](C(C)C)C(=O)N(C)[C@@H](CC(C)C)C(=O)N[C@@H](C)C(=O)N[C@H](C)C(=O)N(C)[C@@H](CC(C)C)C(=O)N(C)[C@@H](CC(C)C)C(=O)N(C)[C@@H](C(C)C)C(=O)N1C,EC50,[2],60 nM
CCCC[C@@H](C)[C@@H](O)[C@H]1C(=O)N[C@@H](CC)C(=O)N(C)CC(=O)N(C)[C@@H](CC(C)(C)OCCO)C(=O)N[C@@H](C(C)C)C(=O)N(C)[C@@H](CC(C)C)C(=O)N[C@@H](C)C(=O)N[C@H](C)C(=O)N(C)[C@@H](CC(C)C)C(=O)N(C)[C@@H](CC(C)C)C(=O)N(C)[C@@H](C(C)C)C(=O)N1C [[γ-(2-Hydroxyethoxy)-N-MeLeu]-4-dihydrocyclosporin] (cyclo(A[dA][NMeL][NMeL][NMeV][NMe(dihydroBmt)][Abu][Sar][X11]V[NMeL])),EC50,[1],430 nM
"CC=CCC(C)C(O)C1C(=O)NC(CC)C(=O)N(C)C(CSCCN(CC)CC)C(=O)N(C)C(C(C)CC)C(=O)NC(C(C)C)C(=O)N(C)C(CC(C)C)C(=O)NC(C)C(=O)NC(C)C(=O)N(C)C(CC(C)C)C(=O)N(C)C(CC(C)C)C(=O)N(C)C(C(C)C)C(=O)N1C [[(S)-(2-(N,N-Diethylamino)ethylthio)methyl-Sar]-3-[N-MeIle]-4-cyclosporin] (cyclo([X3][Abu][NMeC](Et2NCH2CH2)[NMeI]V[NMeL]AA[NMeL][NMeL][NMeV]); configuration not given here)",EC50,[2],100 nM
CC=CCC(C)C(O)C1C(=O)NC(CC)C(=O)N(C)C(SCCNCC(C)(C)C)C(=O)N(C)C(CC(C)C)C(=O)NC(C(C)C)C(=O)N(C)C(CC(C)C)C(=O)NC(C)C(=O)NC(C)C(=O)N(C)C(CC(C)C)C(=O)N(C)C(CC(C)C)C(=O)N(C)C(C(C)C)C(=O)N1C [(R)-2-(N-neo-Pentylamino)ethylthio-Sar]-3-cyclosporin],EC50,[5],3090 nM
CC=CCC(C)C(O)C1C(=O)NC(CC)C(=O)N(C)C(COCCN(C)C)C(=O)N(C)C(CC(C)(C)O)C(=O)NC(C(C)C)C(=O)N(C)C(CC(C)C)C(=O)NC(C)C(=O)NC(C)C(=O)N(C)C(CC(C)C)C(=O)N(C)C(CC(C)C)C(=O)N(C)C(C(C)C)C(=O)N1C (centres unmarked),EC50,[2],240 nM
C/C=C/C[C@@H](C)[C@@H](O)[C@H]1C(=O)N[C@@H](CC)C(=O)N(C)[C@@H](COCCN(CC)CC)C(=O)N(C)[C@@H](CC(C)(C)O)C(=O)N[C@@H](C(C)C)C(=O)N(C)[C@@H](CC(C)C)C(=O)N[C@@H](C)C(=O)N[C@H](C)C(=O)N(C)[C@@H](CC(C)C)C(=O)N(C)[C@@H](CC(C)C)C(=O)N(C)[C@@H](C(C)C)C(=O)N1C,EC50,[3],50 nM
